These results are taken from patent US6652835B1, “Targeting multimeric imaging agents through multilocus binding” (Epix Medical, Inc., priority 1999, dated 2003).

Several values for one entry are separate records, joined by “and”; a condition that tells them apart may be missing. Equal entries are not always repeated.

Data set [1] concerns the target T1, Human Serum Albumin (HSA) (Homo sapiens, UniProt P02768). Briefly: Average bound relaxivity in the presence of 4.5% HSA (20 MHz, 37° C.). It is filed as physicochemical. The settings on record: for R1bound/Gd^+3 mM^−1s^−1 (20 MHz) / Total R1bound mM^−1s^−1 (20 MHz): bound to HSA; for R1bound/Gd^+3 mM^−1s^−1 (20 MHz): per Gd(III); for Total R1bound mM^−1s^−1 (20 MHz): whole molecule. An excerpt:
To understand Table 1, it is important to define the extent to which a target-binding MRI contrast agent can achieve its maximum possible relaxivity. This maximum relaxivity for a particular contrast agent is approximately equal to the relaxivity of the molecule when bound to a target (R1bound), such as Human Serum Albumin (HSA). The average ? bound is a normalized measure of the average relaxivity for all bound species under a standard set of conditions (such as a specific target or protein concentration, drug concentration, temperature, etc.) that is weighted by the bound population of each species. Therefore, since the value of ? bound is a normalized quantity, comparisons of relaxivities can be made among different molecules in the bound state by comparing values for ? bound. Comparison of the calculated ? bound values provides a convenient method for comparing compounds irrespective of their affinities for a target.
Calculating the average ( ? bound) requires measuring the relaxivity of the free chelate (R1free) as well as the observed relaxivity (R1obs) and percent binding of the agent to a target solution typically containing 4.5% of the target, e.g., HSA. The R1obs is a mole fraction (x) weighted average of R1free and R1bound: [formula]
(§1) The compounds of the present invention were evaluated for relaxivity using a Bruker NMS-120 Minispec NMR spectrometer operating at 0.47 Tesla (20 MHz H-1 Larmor frequency) and 37° C. T1 of water protons was determined by an inversion recovery pulse sequence using the instrument's software. Relaxivity was determined in the presence of the target (typically 4.5% HSA) by preparing 4 individual samples. The first contained only 4.5% HSA in phosphate buffered saline (PBS), and the other three contained ca. 20, 30, and 40 μM Gd(III), respectively, in addition to 4.5% HSA in PBS. The samples are incubated at 37 degrees C. for at least 15 minutes to ensure temperature equilibration before the T1 measurement is performed. The Gd(III) content of the samples is determined by inductively coupled plasma—mass spectrometry (ICP-MS). The relaxivity (per Gd(III) ion) is determined by plotting the relaxation rate (1/T1) in s^−1 versus the Gd(III) concentration in mM. The slope of a linear fit to the data gives the relaxivity. The relaxivity of the compounds in the absence of target is also determined in an analogous manner, except there is no target present.
The concentration of species bound to the target under these conditions is determined in a separate experiment using e.g. ultrafiltration or equilibrium dialysis. Knowledge of the amount of species bound to the target, the relaxivity in the presence of the target, and the relaxivity in the absence of the target allows the calculation of the average bound relaxivity as described herein.

Data set [2] can be described thus: Relaxivity of the free agent in the absence of target (20 MHz, 37° C.). It is filed as physicochemical. The settings on record: no target. On the procedure:
as §1

Data set [3] has as its target T1, Human Serum Albumin (HSA). Nature of the data set: Percent binding to HSA (ultrafiltration). The settings on record: target HSA. The source says: The extent of binding of a TBM to a target, such as HSA or fibrin, can be assessed by a variety of equilibrium binding methods. For example, binding to HSA can be measured by ultrafiltration. In a typical binding measurement using ultrafiltration, the targeting group is mixed with 4.5% weight/volume HSA in a pH 7.4 buffer. The sample is loaded into a commercially available centrifugation apparatus equipped with a 30 KDa molecular weight cutoff filter (Millipore Ultrafree MC Low Binding Regenerated Cellulose 30 KDa mol. wt. cutoff catalog #UFC3LTK00), permeable to the targeting group, but not HSA. A small portion (5-10%) of the sample volume is filtered by centrifugation at 2000×g for 20 min through the cutoff filter, and the concentration of unbound targeting group in the sample is measured in the filtrate. The concentration of species bound to the target under these conditions is determined in a separate experiment using e.g. ultrafiltration or equilibrium dialysis. Knowledge of the amount of species bound to the target, the relaxivity in the presence of the target, and the relaxivity in the absence of the target allows the calculation of the average bound relaxivity as described herein.

The target of data set [4] is T2, clot containing human fibrin (Homo sapiens, UniProt P02671+P02675+P02679).
T2 construct: host or cells: clot formed in the clamped rabbit jugular vein from added human fibrinogen and thrombin
T2 sequence (P02671 36-629 limits assumed): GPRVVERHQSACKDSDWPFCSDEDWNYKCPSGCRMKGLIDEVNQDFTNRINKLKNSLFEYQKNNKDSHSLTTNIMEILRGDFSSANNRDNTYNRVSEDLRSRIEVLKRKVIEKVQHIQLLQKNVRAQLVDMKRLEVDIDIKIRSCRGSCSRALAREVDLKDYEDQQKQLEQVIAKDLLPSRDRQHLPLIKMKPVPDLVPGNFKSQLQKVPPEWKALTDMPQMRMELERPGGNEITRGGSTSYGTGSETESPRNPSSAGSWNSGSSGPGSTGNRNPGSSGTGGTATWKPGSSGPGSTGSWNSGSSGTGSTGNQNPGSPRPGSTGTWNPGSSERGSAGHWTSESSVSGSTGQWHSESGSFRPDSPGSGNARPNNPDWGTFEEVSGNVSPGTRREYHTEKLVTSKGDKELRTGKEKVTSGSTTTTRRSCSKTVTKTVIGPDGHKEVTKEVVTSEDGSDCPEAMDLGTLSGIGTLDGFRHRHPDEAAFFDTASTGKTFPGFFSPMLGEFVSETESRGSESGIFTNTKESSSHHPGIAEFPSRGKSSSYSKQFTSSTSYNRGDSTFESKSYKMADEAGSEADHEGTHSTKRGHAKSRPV
T2 sequence (P02675 45-491 limits assumed): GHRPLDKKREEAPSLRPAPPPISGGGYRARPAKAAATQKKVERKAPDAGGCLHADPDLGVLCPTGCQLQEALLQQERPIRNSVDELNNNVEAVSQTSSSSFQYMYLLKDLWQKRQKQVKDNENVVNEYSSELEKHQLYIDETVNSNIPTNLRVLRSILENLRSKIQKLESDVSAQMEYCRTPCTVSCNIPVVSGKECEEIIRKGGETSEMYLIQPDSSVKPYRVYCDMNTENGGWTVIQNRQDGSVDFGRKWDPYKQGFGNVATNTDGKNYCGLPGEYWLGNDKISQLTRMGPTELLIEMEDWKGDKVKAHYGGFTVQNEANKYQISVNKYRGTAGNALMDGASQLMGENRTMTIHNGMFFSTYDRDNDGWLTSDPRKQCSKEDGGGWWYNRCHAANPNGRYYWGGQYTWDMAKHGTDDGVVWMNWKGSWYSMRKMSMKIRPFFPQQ
T2 sequence (P02679 27-437 isoform P02679-2 limits assumed): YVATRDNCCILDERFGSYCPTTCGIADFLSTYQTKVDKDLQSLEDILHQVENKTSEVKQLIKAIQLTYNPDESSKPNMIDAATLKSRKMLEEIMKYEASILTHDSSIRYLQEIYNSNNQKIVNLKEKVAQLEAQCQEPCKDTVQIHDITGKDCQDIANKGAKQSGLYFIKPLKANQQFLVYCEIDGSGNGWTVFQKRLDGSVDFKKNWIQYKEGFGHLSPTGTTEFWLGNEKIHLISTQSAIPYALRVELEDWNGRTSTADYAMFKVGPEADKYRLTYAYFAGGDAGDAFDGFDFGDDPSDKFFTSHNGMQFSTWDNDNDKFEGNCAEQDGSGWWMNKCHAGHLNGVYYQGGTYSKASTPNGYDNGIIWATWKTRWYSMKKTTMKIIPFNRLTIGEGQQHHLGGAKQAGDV
Nature of the data set: Rabbit jugular vein clot model, MR imaging. It is filed as in vivo. The settings on record: MR images after injection (FIG. 14). As for the experimental part: One animal model that may be used is the rabbit jugular vein clot model in which the jugular vein is clamped. The vein is clamped at two locations, and the rabbit blood between the clamps is removed. Human fibrinogen, rabbit red blood cells and thrombin are added to the vein between the clamps to generate a clot containing human fibrin. The clot is typically aged for 30 minutes.
In the rabbit jugular model, a typical machine is a 1.5 Tesla using a spoiled gradient (SPGR) MRI at 36/5/30 deg). Alternatively, a 3D GRE 44/10/30 deg. method of imaging may be used with a 1.5 Tesla machine. Alternatively, IR 2000/10/700 methods may be employed with a 1.5 Tesla.
FIG. 14 is a reproduction of a color photograph of the images obtained in an experiment using the assay given in Example 1.

T1 sequence (P02768 25-609): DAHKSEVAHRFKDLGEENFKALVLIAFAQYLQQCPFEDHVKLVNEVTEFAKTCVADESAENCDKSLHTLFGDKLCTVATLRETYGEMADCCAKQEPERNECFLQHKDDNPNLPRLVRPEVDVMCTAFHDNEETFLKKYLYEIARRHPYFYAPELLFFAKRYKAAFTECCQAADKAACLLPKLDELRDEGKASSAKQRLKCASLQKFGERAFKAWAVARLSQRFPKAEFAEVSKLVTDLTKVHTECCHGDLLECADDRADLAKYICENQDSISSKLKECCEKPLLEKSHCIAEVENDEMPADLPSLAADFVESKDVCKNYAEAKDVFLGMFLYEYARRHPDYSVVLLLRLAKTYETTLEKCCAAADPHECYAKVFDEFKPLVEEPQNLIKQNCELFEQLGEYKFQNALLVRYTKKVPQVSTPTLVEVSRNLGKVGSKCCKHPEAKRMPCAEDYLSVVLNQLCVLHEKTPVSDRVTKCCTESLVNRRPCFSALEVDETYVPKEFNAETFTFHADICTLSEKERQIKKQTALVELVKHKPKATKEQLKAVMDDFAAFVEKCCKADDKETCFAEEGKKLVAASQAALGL

As to `Cc1cc(C)c(-c2ccc(CN(CCN(CCN(CCNC(=O)CNC(=O)CC(C(=O)[O-])N(CCN(CC(=O)[O-])CC(=O)[O-])CCN(CC(=O)[O-])CC(=O)[O-])C(=O)CNC(=O)CC(C(=O)[O-])N(CCN(CC(=O)[O-])CC(=O)[O-])CCN(CC(=O)[O-])CC(=O)[O-])C(=O)CNC(=O)CC(C(=O)[O-])N(CCN(CC(=O)[O-])CC(=O)[O-])CCN(CC(=O)[O-])CC(=O)[O-])C(=O)CNC(=O)CC(C(=O)[O-])N(CCN(CC(=O)[O-])CC(=O)[O-])CCN(CC(=O)[O-])CC(=O)[O-])cc2)c(C)c1.[Gd+3].[Gd+3].[Gd+3].[Gd+3]` (stereo not drawn) [Compound M8-07], in data set [1] (HSA), the “ratio of R1bound to R1free” value is on record as 1.7. For the same compound, in data set [1], the “R1bound/Gd^+3 mM^−1s^−1 (20 MHz)” value is 16.0 mM⁻¹ s⁻¹ and 16 mM⁻¹ s⁻¹; the “Total R1bound mM^−1s^−1 (20 MHz)” value is 64.0 mM⁻¹ s⁻¹ and 64 mM⁻¹ s⁻¹. The compound also registered a free relaxivity in data set [2] of 9.2 mM⁻¹ s⁻¹. The “% Bound” value in data set [3] is listed as 64.1%.

`Cc1cc(C)c(-c2ccc(CN(CCN(CCN(CCN(Cc3ccc(-c4c(C)cc(C)cc4C)cc3)C(=O)CNC(=O)CC(C(=O)[O-])N(CCN(CC(=O)[O-])CC(=O)[O-])CCN(CC(=O)[O-])CC(=O)[O-])C(=O)CNC(=O)CC(C(=O)[O-])N(CCN(CC(=O)[O-])CC(=O)[O-])CCN(CC(=O)[O-])CC(=O)[O-])C(=O)CNC(=O)CC(C(=O)[O-])N(CCN(CC(=O)[O-])CC(=O)[O-])CCN(CC(=O)[O-])CC(=O)[O-])C(=O)CNC(=O)CC(C(=O)[O-])N(CCN(CC(=O)[O-])CC(=O)[O-])CCN(CC(=O)[O-])CC(=O)[O-])cc2)c(C)c1.[Gd+3].[Gd+3].[Gd+3].[Gd+3]` (stereo not drawn) [Compound M8-08]: the “ratio of R1bound to R1free” value in data set [1] (HSA) is listed as 4.3. In data set [1] (HSA, relative to M8-07), the “fold increase in total relaxivity, two TBMs versus one TBM (M8-07)” value is reported as 2.75 fold. Moreover, in data set [1], the “R1bound/Gd^+3 mM^−1s^−1 (20 MHz)” value amounted to 44.1 mM⁻¹ s⁻¹ and the “Total R1bound mM^−1s^−1 (20 MHz)” value stood at 176.5 mM⁻¹ s⁻¹. The free relaxivity in data set [2] turned out to be 10.3 mM⁻¹ s⁻¹. Moreover, in data set [3], the “% Bound” value is on record as 93.7%.

For the compound `CCCCc1ccc(C(=O)N(Cc2ccccc2)C2c3ccccc3CC2OP(=O)([O-])OCCC#CCN2CCN(C(=O)CNC(=O)CC(C(=O)[O-])N(CCN(CC(=O)[O-])CC(=O)[O-])CCN(CC(=O)[O-])CC(=O)[O-])CCN(C(=O)CNC(=O)CC(C(=O)[O-])N(CCN(CC(=O)[O-])CC(=O)[O-])CCN(CC(=O)[O-])CC(=O)[O-])CCN(C(=O)CNC(=O)CC(C(=O)[O-])N(CCN(CC(=O)[O-])CC(=O)[O-])CCN(CC(=O)[O-])CC(=O)[O-])CC2)cc1.[Gd+3].[Gd+3].[Gd+3]` (stereo not drawn) [Compound M8-10], in data set [1], the “R1bound/Gd^+3 mM^−1s^−1 (20 MHz)” value was found to be 25.7 mM⁻¹ s⁻¹ and the “Total R1bound mM^−1s^−1 (20 MHz)” value came to 77.1 mM⁻¹ s⁻¹. Further, the “% Bound” value in data set [3] was determined as 66.1%.

As for `O=C([O-])CN(CCN(CC(=O)[O-])CC(=O)O)CCN(CC(=O)[O-])CC(=O)O.[Gd+3]` [Gd-DTPA, gadolinium diethylenetriaminepentaacetic acid], the “imaging of / binding to the clot” value in data set [4] is reported as “does not bind”.
